Test results from BindingDB's records for doi:10.1016/j.ejmech.2023.115180 (Damanhour University, 2023).

Assay: Inhibition of LOX (unknown origin) using arachidonic/linoleic acid as substrate preincubated for 5 mins followed by substrate addition measured after 10 mins by absorbance based assay

| IC50 | Compound |
| --- | --- |
| 2400 nM | Nc1c(C(=O)N/N=C/c2ccccc2)cnn1-c1ccc(S(N)(=O)=O)cc1 |
| 2500 nM | Nc1c(C(=O)N/N=C/c2cccs2)cnn1-c1ccc(S(N)(=O)=O)cc1 |
